For data set [1], the target named is T1, Vitronectin Receptor (αvβ3) (Homo sapiens, UniProt P05106+P06756).
T1 construct: Human vitronection receptor (VnR) is purified from human placenta; from tissue; host or cells: human placenta
Briefly: Human Vitronectin-Vitronectin Receptor (αvβ3) ELISA Assay. The format is binding. Particulars: purified human αvβ3, vitronectin-coated plates; read-out: ELISA IC50 Vitronectin VnR. The text has this:
Human vitronectin (Vn) is isolated from human plasma and purified by affinity chromatography by the method of Yatohgo et. al., (Cell Structure and Function 13:281-292 [1988]).
Human vitronection receptor (VnR) is purified from human placenta by the method of Pytela et al., (Methods Enzymol., 144:475 [1987]). Alternatively the αvβ3 receptor can be purified from some cell lines (e.g., human embryonic kidney 293 cells) transfected with DNA sequences for both the αv and β3 subunits. The subunits are purified by employing octylglucoside extraction followed by Con-A, Heparin-Sepharose, and S-300 Chromatography.
Anti-GP IIb IIIa monoclonal antibodies specific for human GP IIIa are prepared by the method of Newman et al. (Blood, 65:227-232 [1985]), or a similar procedure. This mouse Mab is specific for the β3 subunit of the vitronectin receptor.
Rabbit Fab 2 anti-mouse Fc fragment horse radish peroxidase conjugate (anti-MuFc HRP) is obtained from PelFreeze (cat. no. 715305-1).
Maxisorp microtiter plates are coated with 2 μg/ml human vitronectin dissolved in PBS ([…]) and stored overnight at 4° C. The plates are washed two times with PBS-0.05% Tween-20 (wash buffer) and blocked by incubating with about 150 μl/well of assay buffer (1%, BSA [RIA grade or better] in 50 mM Tris-HCl, 100 mM NaCl, 1 mM MgCl2, CaCl2, MnCl2 pH 7.4) for 60 minutes. Dilutions of standards are prepared and putative inhibitors (Table 3) are dissolved in assay buffer. The blocked plates are emptied and 25 μl/well of inhibitor or standard solution is added to each well. Twenty-five μl of a 30 μg/ml solution of purified αvβ3 in assay buffer is pipetted into the coated plate. The final concentration of receptor in the assay well is about 15 μg/ml. The plate is incubated on a shaker for 60 minutes. Meanwhile, for each microtite plate, 6 ml buffer solution containing 1.5 μg/ml of mouse monoclonal antibody specific for β3 is prepared. To this solution is added μl of the secondary antibody, which is anti-mouse-Fc-HRP antibody conjugate. For example, for one plate, prepare 6 ml of a 1.5 μg/ml mouse Mab solution to which is added 1 μl of anti-mouse-Fc-HRP antibody stock, (this represents a 1:6000 dilution of the antibody - HRP conjugate). This mixture is allowed to incubate during the receptor-inhibitor incubation. The assay plates are washed 4 times with PBS-Tween and 50 μl/well of the antibody mixture is then pipetted into the plate for a 60 minute incubation. The plate is washed 4 times and the color reaction is developed with 50 μl/well of 0.67 mg/ml o-phenyldiamine in PBS containing 0.012% H2 O2. Alternatively, 16 mM citric acid, 50 mM Na2 PO4 at pH 5.0 can be used as a substrate buffer. The reaction is stopped with 50 μl/well 1M H2 SO4. The plates are read at 492-405 nm and the data analyzed by four-parameter fit.
(In general: ELISA stands for enzyme-linked immunosorbent assay.)

For data set [2], the system named is New Zealand White rabbits. In words: Rabbit cutaneous bleeding time (CBT). As to conditions: for Rabbit BT Ratio: Example 1, at the % P.A. inhibition given.
Procedure: Unanesthetized male New Zealand White rabbits (2.5-3.5 kg) are placed in a standard rabbit restrainer. Ears are shaved and a 20 G Teflon catheter with flowswitch (Viggo) is placed in the medial artery, flushed with saline and locked with 1 ml of heparinized saline (10 m/ml). A 22 G catheter (Abbott) fitted with an injection cap (Medex) is placed in the marginal vein of the same ear. Saline or a GP IIb IIIa receptor antagonist, at a concentration of 1 to 3 mg/ml, is infused via the venous catheter. At time 0, 41% of the dose is given as a bolus over 2 minutes. The remainder is continuously infused over the following 60 minutes. Blood samples (3.2 ml) are collected into syringes without needles via the arterial catheter at -10, -5, 10, 45, and 60 minutes. The first 0.5 ml is discarded and the following 2.7 ml is collected directly into a syringe containing 0.3 ml of 3.8% sodium citrate. The sample is divided into 1.5 ml aliquots and centrifuged at room temperature for 5 seconds at 12,000 G. The resulting platelet rich plasma (PRP) is used to measure ex-vivo platelet aggregation (XPA). At -10 and 60 minutes an additional 1 cml sample is drawn for an automated blood count (Baker instruments). Catheters are flushed and locked after every sample.
CBT is measured at -10, -5, 10, and 45 minutes on the opposite ear, using an automated incision-making instrument (Surgicutt®, ITD). An incision (5mm×1 mm deep) is made on the dorsal surface of the ear at sites not supplied by major blood vessels. Blood is blotted away with absorbent paper placed near the incision site, every 2 to 15 seconds, to a maximum of 15 minutes. Cessation of bleeding is defined as no blood forming at the incision site for 15 seconds. The range of duplicate CBT in 40 normal rabbits was 0.88 to 3.38 minutes.
For another data set, the target named is Fibronectin Receptor (Homo sapiens, UniProt P05556+P08648). Briefly: Human Fibronectin-Fibronectin Receptor ELISA Assay. The format is binding. The arrangement: octylglucoside (OG) extracted human placenta; from tissue; host or cells: human placenta. Particulars: human placenta fibronectin receptor, fibronectin-coated plates; read-out: ELISA IC50 Fibronectin FnR. The protocol:
Fibronectin receptor is purified according to the procedures of Pytela et al., (Methods Enzymol. 144:475 […]). Briefly, fibronectin receptor is purified employing an Arg-Gly-Asp affinity chromatography from (100 mM) octylglucoside (OG) extracted human placenta. The OG extract is filtered over Sepharose 6B GRGDSPK column. The column is washed three times with three column volumes of Tris-buffered saline (TBS) TBS, 1 mM CaCl2, and 25 mM OG. The receptor is eluted with TBS, 20 mM EDTA, and 25 mM Octyl thioglucoside, and is stored in 1 mM CaCl2, 1 mM MgCl2, at -80° C.
Microtiter plates are coated with 110 μl human fibronectin (at 2 μg/ml) in TBS. Plates are washed three times with TBS containing 0.05% Tween 20. Test inhibitors are then added after washing in 10 microliter aliquots. The fibronectin receptor is added in 2-fold serial dilutions with TBS containing 20 mM octyl glucoside and 2 mM MnCl2. Plates are incubated three hours at room temperature, and washed with 200 μl TBS-Tween 20 buffer. 100 μl of affinity-purffied rabbit anti-human fibronectin receptor antibody is added to the wells and the plates are incubated two hours, washed twice with TBS-Tween and once with distilled water. Affinity-purified goat anti-rabbit IgG conjugated to horseradish peroxidase (100 μl) is added to each well followed by incubation for 60 minutes at room temperature. Plates are again washed twice with TBS-Tween and distilled water. 100 μl of substrate mixture (10 mg o-phenylenediamine in 25 ml 0.1M citrate-phosphate buffer, pH 5.0 6 μ30% H2 O2) is added to the plates and allowed to develop. The development process is stopped by adding 50 μl of 4N H2 SO4 to each well and read at […].

Each structure is given as a SMILES string. Several values for one entry are separate records, joined by “and”; a condition that tells them apart may be missing. Equal values may be shown once. Where a SMILES comes first, the peptide text is derived from it. Bridges are numbered along the chain shown (N, C = ends). [ ]: non-standard residue; d: D form. The star is where a group is joined. Aad = N[C@@H](CCCC(=O)O)C(=O)O; Pen = CC(C)(S)[C@H](N)C(=O)O; dOrn = NCCC[C@@H](N)C(=O)O; Orn = NCCC[C@H](N)C(=O)O; NH(CH2)4NH2 = NCCCCN*; Ava = NCCCCC(=O)O

T1 sequence (P06756 31-889 limits assumed): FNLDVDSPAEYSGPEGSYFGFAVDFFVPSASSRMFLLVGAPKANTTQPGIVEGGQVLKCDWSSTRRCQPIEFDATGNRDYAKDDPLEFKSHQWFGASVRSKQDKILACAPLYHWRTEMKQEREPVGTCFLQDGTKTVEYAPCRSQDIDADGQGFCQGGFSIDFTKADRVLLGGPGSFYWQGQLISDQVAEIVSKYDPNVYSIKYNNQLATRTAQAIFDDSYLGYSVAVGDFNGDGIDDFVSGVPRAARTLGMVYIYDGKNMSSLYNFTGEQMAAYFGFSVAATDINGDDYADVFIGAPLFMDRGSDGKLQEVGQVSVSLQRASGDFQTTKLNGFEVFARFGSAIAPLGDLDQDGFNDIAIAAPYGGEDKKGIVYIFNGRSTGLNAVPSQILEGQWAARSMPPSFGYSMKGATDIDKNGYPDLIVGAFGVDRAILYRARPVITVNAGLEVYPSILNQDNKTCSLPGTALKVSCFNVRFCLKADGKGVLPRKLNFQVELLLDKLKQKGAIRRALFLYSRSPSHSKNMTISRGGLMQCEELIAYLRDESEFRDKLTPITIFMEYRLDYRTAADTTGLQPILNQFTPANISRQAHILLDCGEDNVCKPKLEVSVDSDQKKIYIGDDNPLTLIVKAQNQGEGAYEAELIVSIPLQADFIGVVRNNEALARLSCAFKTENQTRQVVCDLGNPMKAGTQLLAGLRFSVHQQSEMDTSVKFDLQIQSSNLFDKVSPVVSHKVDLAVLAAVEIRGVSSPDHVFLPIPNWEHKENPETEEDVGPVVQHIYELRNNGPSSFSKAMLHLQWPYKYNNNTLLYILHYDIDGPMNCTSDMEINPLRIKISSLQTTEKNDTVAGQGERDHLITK
T1 sequence (P06756 891-1048 partner limits assumed): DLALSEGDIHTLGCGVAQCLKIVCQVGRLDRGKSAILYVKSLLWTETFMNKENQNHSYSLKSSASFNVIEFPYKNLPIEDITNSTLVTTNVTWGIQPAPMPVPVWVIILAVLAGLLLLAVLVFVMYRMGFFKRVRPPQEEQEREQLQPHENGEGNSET
T1 sequence (P05106 27-788): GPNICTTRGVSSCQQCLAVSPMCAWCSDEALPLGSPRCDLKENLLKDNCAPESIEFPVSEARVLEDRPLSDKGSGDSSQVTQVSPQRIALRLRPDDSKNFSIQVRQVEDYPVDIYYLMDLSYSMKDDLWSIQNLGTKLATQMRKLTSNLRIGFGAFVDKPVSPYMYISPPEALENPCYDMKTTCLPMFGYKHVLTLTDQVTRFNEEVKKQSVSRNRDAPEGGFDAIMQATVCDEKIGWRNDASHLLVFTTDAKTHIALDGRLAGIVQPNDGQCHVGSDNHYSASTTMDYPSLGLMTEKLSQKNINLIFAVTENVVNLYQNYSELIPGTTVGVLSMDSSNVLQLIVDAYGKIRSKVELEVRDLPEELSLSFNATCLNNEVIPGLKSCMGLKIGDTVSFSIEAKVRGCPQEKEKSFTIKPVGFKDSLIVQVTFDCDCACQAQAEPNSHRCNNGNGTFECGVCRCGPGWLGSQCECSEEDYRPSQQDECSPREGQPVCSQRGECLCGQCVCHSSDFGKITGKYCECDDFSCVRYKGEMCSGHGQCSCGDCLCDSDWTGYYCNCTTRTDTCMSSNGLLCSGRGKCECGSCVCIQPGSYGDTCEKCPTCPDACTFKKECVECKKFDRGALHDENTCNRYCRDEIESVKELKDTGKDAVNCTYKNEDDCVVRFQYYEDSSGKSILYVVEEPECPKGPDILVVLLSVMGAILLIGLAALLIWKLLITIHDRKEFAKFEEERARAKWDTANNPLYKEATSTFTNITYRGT
Chain of Fibronectin Receptor (P08648 42-894 limits assumed): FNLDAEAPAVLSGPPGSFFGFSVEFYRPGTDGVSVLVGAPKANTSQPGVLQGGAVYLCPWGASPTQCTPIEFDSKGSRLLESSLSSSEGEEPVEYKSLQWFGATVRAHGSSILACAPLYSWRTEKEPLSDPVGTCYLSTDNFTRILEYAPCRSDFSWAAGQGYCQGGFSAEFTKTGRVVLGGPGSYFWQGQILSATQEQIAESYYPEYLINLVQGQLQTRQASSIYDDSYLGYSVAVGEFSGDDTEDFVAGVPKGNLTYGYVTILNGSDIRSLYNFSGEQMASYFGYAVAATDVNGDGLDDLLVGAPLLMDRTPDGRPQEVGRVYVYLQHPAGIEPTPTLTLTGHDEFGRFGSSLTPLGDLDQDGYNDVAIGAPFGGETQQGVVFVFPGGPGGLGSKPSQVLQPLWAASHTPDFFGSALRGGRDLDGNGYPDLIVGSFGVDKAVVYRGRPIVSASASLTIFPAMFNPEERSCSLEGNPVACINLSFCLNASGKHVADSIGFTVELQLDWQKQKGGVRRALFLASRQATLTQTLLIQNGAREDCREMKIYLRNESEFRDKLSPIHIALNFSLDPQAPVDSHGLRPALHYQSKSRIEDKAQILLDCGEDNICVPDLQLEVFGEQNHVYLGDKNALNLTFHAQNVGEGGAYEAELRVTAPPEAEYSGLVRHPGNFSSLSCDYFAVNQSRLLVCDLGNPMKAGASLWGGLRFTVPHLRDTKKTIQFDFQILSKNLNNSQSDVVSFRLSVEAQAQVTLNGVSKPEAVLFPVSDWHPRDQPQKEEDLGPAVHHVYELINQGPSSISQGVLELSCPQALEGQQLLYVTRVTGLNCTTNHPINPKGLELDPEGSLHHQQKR
Chain of Fibronectin Receptor (P08648 895-1049 partner limits assumed): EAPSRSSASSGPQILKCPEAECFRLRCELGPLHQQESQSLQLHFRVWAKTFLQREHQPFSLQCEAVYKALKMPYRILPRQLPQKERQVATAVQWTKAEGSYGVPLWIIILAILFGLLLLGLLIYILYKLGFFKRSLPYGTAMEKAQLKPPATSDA
Chain of Fibronectin Receptor (P05556 21-798): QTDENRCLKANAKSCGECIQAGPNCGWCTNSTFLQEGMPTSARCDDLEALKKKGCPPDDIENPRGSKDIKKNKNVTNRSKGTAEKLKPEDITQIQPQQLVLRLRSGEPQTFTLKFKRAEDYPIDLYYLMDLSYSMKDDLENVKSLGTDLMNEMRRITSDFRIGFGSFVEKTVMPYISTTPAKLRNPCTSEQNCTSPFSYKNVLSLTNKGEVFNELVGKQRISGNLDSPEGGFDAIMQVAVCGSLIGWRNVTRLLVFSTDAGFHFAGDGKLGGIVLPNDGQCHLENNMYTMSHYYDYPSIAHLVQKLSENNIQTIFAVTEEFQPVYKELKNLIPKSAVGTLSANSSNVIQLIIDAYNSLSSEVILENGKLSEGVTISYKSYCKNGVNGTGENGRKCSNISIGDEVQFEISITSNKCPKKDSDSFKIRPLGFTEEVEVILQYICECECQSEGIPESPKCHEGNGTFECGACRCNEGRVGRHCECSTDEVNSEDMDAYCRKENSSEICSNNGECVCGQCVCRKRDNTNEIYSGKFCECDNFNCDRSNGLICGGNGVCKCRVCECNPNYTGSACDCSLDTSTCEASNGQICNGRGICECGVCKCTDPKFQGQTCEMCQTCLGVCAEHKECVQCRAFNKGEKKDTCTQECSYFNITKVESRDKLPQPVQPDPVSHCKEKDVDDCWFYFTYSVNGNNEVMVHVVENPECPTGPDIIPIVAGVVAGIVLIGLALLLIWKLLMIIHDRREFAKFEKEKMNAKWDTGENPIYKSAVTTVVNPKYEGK

On to `N=C(N)NCCC[C@@H]1NC(=O)[C@@H](Cc2ccc(O)cc2)NC(=O)C(CCCCN)SC[C@@H](C(=O)O)NC(=O)[C@H](CC(=O)O)NC(=O)CNC1=O` (single isomer, unassigned) [9/10, cyclo-S-2-L-(6-aminocaproyl)-Lys--dTyr--Arg--Gly--Asp--Cys--OH], for which the concentration for half-maximal inhibition (IC50) – broadly, the point on the concentration scale where inhibition reaches its midpoint – in data set [1] stood at 9.6 nM; at Fibronectin Receptor it was 2 nM. Besides, the “Rabbit BT Ratio” value in data set [2] came to 8.17.

With `N=C(N)NCCC[C@@H]1NC(=O)[C@@H](Cc2ccc(O)cc2)NC(=O)C(CCCCN)SC[C@@H](C(=O)O)NC(=O)[C@H](CC(=O)O)NC(=O)CNC1=O` (single isomer, unassigned) [9/11, cyclo-S-2-L-(6-aminocaproyl)-Lys--dTyr--Arg--Gly--Asp--Cys--OH], the IC50 in data set [1] is 11.2 nM; at Fibronectin Receptor, 160 nM.

For `N=C(N)NCCC[C@H](NC(=O)[C@@H]1CSCC(=O)N[C@H](Cc2ccc(O)cc2)C(=O)N[C@@H](CCCNC(=N)N)C(=O)NCC(=O)N[C@@H](CC(=O)O)C(=O)N1)C(N)=O` [7/1, cyclo-S-acetyl-dTyr--Arg--Gly--Asp--Cys--Arg--NH2] ({CH2CO}-[dY]RGDCR-NH2; thioether N-5), the figures for the IC50 (in data set [1]; on Fibronectin Receptor) were 49 nM and 57 nM, respectively. The “increase in cutaneous bleeding time” value in data set [2] (dosed to 100% inhibition of platelet aggregation) is 1.17 times. Further, the “Rabbit BT Ratio” value in data set [2] was determined as 1.7.

Take `N=C(N)NCCC[C@@H]1NC(=O)[C@@H](Cc2ccc(O)cc2)NC(=O)CSC[C@@H](C(=O)N[C@H](CCCNC(=N)N)C(N)=O)NC(=O)[C@H](CC(=O)O)NC(=O)CNC1=O` [7/2, cyclo-S-acetyl-dTyr--Arg--Gly--Asp--Cys--dArg--NH2] ({CH2CO}-[dY]RGDC[dR]-NH2; thioether N-5): the 50% inhibitory concentration (IC50) in data set [1] was 22 nM; at Fibronectin Receptor, 42 nM.

With `N=C(N)NCCC[C@@H]1NC(=O)[C@@H](Cc2ccc(O)cc2)NC(=O)CSC[C@@H](C(=O)N[C@@H](CCCCN)C(N)=O)NC(=O)[C@H](CC(=O)O)NC(=O)CNC1=O` [7/3, cyclo-S-acetyl-dTyr--Arg--Gly--Asp--Cys--Lys--NH2] ({CH2CO}-[dY]RGDCK-NH2; thioether N-5), the IC50 in data set [1] was 60 nM; on Fibronectin Receptor, 201 nM. In data set [2] (dosed to 95% inhibition of platelet aggregation), the “increase in cutaneous bleeding time” value came out at 1.95 times. The “Rabbit BT Ratio” value in data set [2] is 1.95.

Regarding `N=C(N)NCCC[C@@H]1NC(=O)[C@@H](Cc2ccc(O)cc2)NC(=O)CSC[C@@H](C(=O)N[C@H](CCCCN)C(N)=O)NC(=O)[C@H](CC(=O)O)NC(=O)CNC1=O` [7/4, cyclo-S-acetyl-dTyr--Arg--Gly--Asp--Cys--dLys--NH2] ({CH2CO}-[dY]RGDC[dK]-NH2; thioether N-5), the results for the IC50 (in data set [1]; on Fibronectin Receptor) were 17 nM and 66 nM, respectively.

For the molecule `N=C(N)NCCC[C@@H]1NC(=O)[C@@H](Cc2ccc(O)cc2)NC(=O)CSC[C@@H](C(=O)N[C@@H](CCCN)C(N)=O)NC(=O)[C@H](CC(=O)O)NC(=O)CNC1=O` [7/5, cyclo-S-acetyl-dTyr--Arg--Gly--Asp--Cys--Orn--NH2] ({CH2CO}-[dY]RGDC[Orn]-NH2; thioether N-5), the IC50 in data set [1] amounted to 45 nM; at Fibronectin Receptor it was 63 nM. Further, in data set [2], the “Rabbit BT Ratio” value is 1.26.

With `N=C(N)NCCC[C@@H]1NC(=O)[C@@H](Cc2ccc(O)cc2)NC(=O)CSC[C@@H](C(=O)N[C@H](CCCN)C(N)=O)NC(=O)[C@H](CC(=O)O)NC(=O)CNC1=O` [7/6, cyclo-S-acetyl-dTyr--Arg--Gly--Asp--Cys--dOrn--NH2] ({CH2CO}-[dY]RGDC[dOrn]-NH2; thioether N-5), the IC50 is 55 nM in data set [1] and 161 nM on Fibronectin Receptor.

Regarding `N=C(N)NCCC[C@H](NC(=O)[C@H](Cc1ccc(O)cc1)NC(=O)[C@@H]1CSCC(=O)N[C@H](Cc2ccc(O)cc2)C(=O)N[C@@H](CCCNC(=N)N)C(=O)NCC(=O)N[C@@H](CC(=O)O)C(=O)N1)C(N)=O` [7/7, cyclo-S-acetyl-dTyr--Arg--Gly--Asp--Cys--Tyr--Arg--NH2] ({CH2CO}-[dY]RGDCYR-NH2; thioether N-5), the values for the IC50 (in data set [1]; at Fibronectin Receptor) were 51 nM and 27 nM, respectively. The “Rabbit BT Ratio” value in data set [2] is given as 4.10.

Turning to `CC1(C)SCC(=O)N[C@H](Cc2ccc(O)cc2)C(=O)N[C@@H](CCCCN)C(=O)NCC(=O)N[C@@H](CC(=O)O)C(=O)N[C@@H]1C(=O)N[C@@H](CCCNC(=N)N)C(N)=O` [7/16, cyclo-S-acetyl-dTyr--Lys--Gly--Asp--Pen--Arg--NH2] ({CH2CO}-[dY]KGD[Pen]R-NH2; thioether N-5), the IC50 in data set [1] was 120000 nM; at Fibronectin Receptor, above 10000 nM. For the same molecule, in data set [2], the “cutaneous bleeding time, result in words” value was “without substantial increased cutaneous bleeding time”.

With `N=C(N)NCCC[C@@H]1NC(=O)[C@@H](Cc2ccc(O)cc2)NC(=O)CSC[C@@H](C(=O)N[C@@H](CCC(N)=O)C(N)=O)NC(=O)[C@H](CC(=O)O)NC(=O)CNC1=O` [7/27, cyclo-S-acetyl-dTyr--Arg--Gly--Asp--Cys--Gln--NH2] ({CH2CO}-[dY]RGDCQ-NH2; thioether N-5), the IC50 in data set [1] came out at 49 nM. In data set [2], the “cutaneous bleeding time, result in words” value was “did not increase cutaneous blood time”; the “Rabbit BT Ratio” value was 0.77 and 0.93.

On to `N=C(N)NCCC[C@@H]1NC(=O)[C@@H](Cc2ccc(O)cc2)NC(=O)CSC[C@@H](C(=O)NCCCCC(=O)O)NC(=O)[C@H](CC(=O)O)NC(=O)CNC1=O` [7/28, cyclo-S-(1-5)-dTyr--Arg--Gly--Asp--Cys--X (X = aminovaleric acid)] ({CH2CO}-[dY]RGDC[Ava]-OH; thioether N-5), for which the IC50 in data set [1] stood at 650 nM.

For the molecule `N=C(N)NCCC[C@@H]1NC(=O)[C@@H](Cc2ccc(O)cc2)NC(=O)CSC[C@@H](C(=O)NCCCCN)NC(=O)[C@H](CC(=O)O)NC(=O)CNC1=O` [8/12, cyclo-S-acetyl-dTyr--Arg--Gly--Asp--Cys--NH--X (X = butylamine)] ({CH2CO}-[dY]RGDC-{NH(CH2)4NH2}; thioether N-5), in data set [1], the IC50 turned out to be 70 nM. Further, the “Rabbit BT Ratio” value in data set [2] amounted to 0.94.

Take `N=C(N)NCCC[C@H](NC(=O)[C@@H]1CCCC(=O)N[C@H](Cc2ccc(O)cc2)C(=O)N[C@@H](CCCNC(=N)N)C(=O)NCC(=O)N[C@@H](CC(=O)O)C(=O)N1)C(N)=O` [10/19, cyclo(1-5)dTyr--Arg--Gly--Asp--L-α-aminoadipic acid-Arg--NH2] ([dY]RGD[Aad]R-NH2; lactam N-5): the IC50 in data set [1] stood at 32 nM; at Fibronectin Receptor it was 745 nM.
